From US7022333B2 (priority 2001, dated 2006)

Test system: S. aureus FRI-1187
Type: cell-based, Staphylococcus aureus

Compound: OCCc1ccccc1 [Phenylethyl alcohol, phenylethyl alcohol]
- amount of exotoxin production from the FRI-1187 culture: significantly reduced
- ELISA: TSST-1 ng/OD unit (0.5% test compound, S. aureus FRI-1187, Example 5): none
